This is an account of results in patent publication US7094900B2, “N-Aryl-2-oxazolidinones and their derivatives” (Pharmacia & Upjohn Company LLC, priority 2002, dated 2006).

Molecules are shown by their SMILES. Converted amounts (≈) assume the structure as drawn.

For this assay, the system named is Saur 9213. Kind of assay: MIC test, standard agar dilution method. Type of assay: cell-based. The conditions noted are these: Mueller Hinton agar, incubated overnight at 35° C., lowest concentration that inhibits visible growth. An excerpt: The oxazolidinone antibacterial agents of this invention have useful activity against a variety of organisms. The in vitro activity of compounds of this invention can be assessed by standard testing procedures such as the determination of minimum inhibitory concentration (MIC) by agar dilution as described in “Approved Standard. Methods for Dilution Antimicrobial Susceptibility Tests for Bacteria That Grow Aerobically”, 3rd. ed., published 1993 by the National Committee for Clinical Laboratory Standards, Villanova, Pa., USA. MIC Test Method The in vitro MICs of test compounds were determined by a standard agar dilution method. A stock drug solution of each analog was prepared in the preferred solvent, usually DMSO:H2O (1:3). Serial 2-fold dilutions of each sample are made using 1.0 ml aliquots of sterile distilled water. To each 1.0 ml aliquot of drug was added 9 ml of molten Mueller Hinton gar medium. The drug-supplemented agar was mixed, poured into 15×100 mm petri dishes, and allowed to solidify and dry prior to inoculation. Vial of each of the test organisms are maintained frozen in the vapor phase of a liquid nitrogen freezer. Test cultures are grown overnight at 35° C. on the medium appropriate for the organism. Colonies are harvested with a sterile swab, and cell suspensions are prepared in Trypticase Soy broth (TSB) to equal the turbidity of a 0.5 McFarland standard. A 1:20 dilution of each suspension was made in TSB. The plates containing the drug supplemented agar are inoculated with a 0.001 ml drop of the cell suspension using a Steers replicator, yielding approximately 10^4 to 10^5 cells per spot. The plates are incubated overnight at 35° C. Following incubation the Minimum Inhibitory Concentration (MIC μg/ml), the lowest concentration of the drug that inhibits visible growth of the organism, was read and recorded.
(In general: Agar dilution tests growth on a series of plates holding different concentrations.)
As for `O=C1CCC(c2ccc(N3C[C@H](CNC(=O)C(Cl)Cl)OC3=O)cc2)CN1` (stereo partly drawn) [Example 12, 2,2-dichloro-N-({(5S)-2-oxo-3-[4-(6-oxopiperidin-3-yl)phenyl]-1,3-oxazolidin-5-yl}methyl)acetamide], the minimal inhibitory concentration (MIC) stood at 4 µg/mL (≈ 9.99 µM). For `CC(=O)NC[C@H]1CN(c2ccc(C3CCNC(=O)C3)cc2)C(=O)O1` (stereo partly drawn) [Example 22, N-({(5S)-2-oxo-3-[4-(2-oxopiperidin-4-yl)phenyl]-1,3-oxazolidin-5-yl}methyl)acetamide] the value was 4 µg/mL (≈ 12.1 µM); for `O=C1CCC(c2c(F)cc(N3C[C@H](CNC(=S)C(F)F)OC3=O)cc2F)CN1` (stereo partly drawn) [Example 8, N-({(5S)-3-[3,5-difluoro-4-(6-oxopiperidin-3-yl)phenyl]-2-oxo-1,3-oxazolidin-5-yl}methyl)-2,2-difluoroethanethioamide], 1 µg/mL (≈ 2.38 µM). `CCC(=O)NC[C@H]1CN(c2cc(F)c(C3CCNC(=O)C3)c(F)c2)C(=O)O1` (stereo partly drawn) [Example 20, N-({(5S)-3-[3,5-difluoro-4-(2-oxopiperidin-4-yl)phenyl]-2-oxo-1,3-oxazolidin-5-yl}methyl)propanamide] gave a minimum inhibitory concentration (MIC) of 8 µg/mL (≈ 21 µM).

Regarding `O=C1CC(c2ccc(N3C[C@H](CNC(=S)C(F)F)OC3=O)cc2)CCN1` (stereo partly drawn) [Example 23, 2,2-difluoro-N-({(5S)-2-oxo-3-[4-(2-oxopiperidin-4-yl)phenyl]-1,3-oxazolidin-5-yl}methyl)ethanethioamide], 1 µg/mL (≈ 2.61 µM) was the least that counted as inhibitory (MIC). For `CC(=O)NC[C@H]1CN(c2ccc(C3CCC(=O)NC3)c(F)c2)C(=O)O1` (stereo partly drawn) [Example 1, N-({(5S)-3-[3-fluoro-4-(6-oxopiperidin-3-yl)phenyl]-2-oxo-1,3-oxazolidin-5-yl}methyl)acetamide] the value was 4 µg/mL (≈ 11.4 µM); for `O=C1CCC(c2ccc(N3C[C@H](CNC(=O)C(Cl)Cl)OC3=O)cc2F)CN1` (stereo partly drawn) [Example 3, 2,2-dichloro-N-({(5S)-3-[3-fluoro-4-(6-oxopiperidin-3-yl)phenyl]-2-oxo-1,3-oxazolidin-5-yl}methyl)acetamide], 4 µg/mL (≈ 9.56 µM). For `CCC(=O)NC[C@H]1CN(c2ccc(C3CCNC(=O)C3)c(F)c2)C(=O)O1` (stereo partly drawn) [Example 17, N-({(5S)-3-[3-fluoro-4-(2-oxopiperidin-4-yl)phenyl]-2-oxo-1,3-oxazolidin-5-yl}methyl)propanamide] the value was 4 µg/mL (≈ 11 µM); for `CCC(=O)NC[C@H]1CN(c2ccc(C3CCNC(=O)C3)cc2)C(=O)O1` (stereo partly drawn) [Example 24, N-({(5S)-2-oxo-3-[4-(2-oxopiperidin-4-yl)phenyl]-1,3-oxazolidin-5-yl}methyl)propanamide], 8 µg/mL (≈ 23.2 µM). The figure for `O=C1CCC(c2ccc(N3C[C@H](CNC(=S)C(F)F)OC3=O)cc2)CN1` (stereo partly drawn) [Example 13, 2,2-difluoro-N-({(5S)-2-oxo-3-[4-(6-oxopiperidin-3-yl)phenyl]-1,3-oxazolidin-5-yl}methyl)ethanethioamide] is 2 µg/mL (≈ 5.22 µM). Take `O=C1CCC(c2c(F)cc(N3C[C@H](CNC(=O)C(F)F)OC3=O)cc2F)CN1` (stereo partly drawn) [Example 9, N-({(5S)-3-[3,5-difluoro-4-(6-oxopiperidin-3-yl)phenyl]-2-oxo-1,3-oxazolidin-5-yl}methyl)-2,2-difluoroacetamide]: it took 4 µg/mL (≈ 9.92 µM) to inhibit growth (MIC). The figure for `O=C1CC(c2ccc(N3C[C@H](CNC(=S)C(F)F)OC3=O)cc2F)CCN1` (stereo partly drawn) [Example 18, 2,2-difluoro-N-({(5S)-3-[3-fluoro-4-(2-oxopiperidin-4-yl)phenyl]-2-oxo-1,3-oxazolidin-5-yl}methyl)ethanethioamide] is 1 µg/mL (≈ 2.49 µM); for `CC(=O)NC[C@H]1CN(c2cc(F)c(C3CCC(=O)NC3)c(F)c2)C(=O)O1` (stereo partly drawn) [Example 6, N-({(5S)-3-[3,5-difluoro-4-(6-oxopiperidin-3-yl)phenyl]-2-oxo-1,3-oxazolidin-5-yl}methyl)acetamide] it is 4 µg/mL (≈ 10.9 µM). For `O=C1CCC(c2ccc(N3C[C@H](CNC(=S)C(F)F)OC3=O)cc2F)CN1` (stereo partly drawn) [Example 4, 2,2-difluoro-N-({(5S)-3-[3-fluoro-4-(6-oxopiperidin-3-yl)phenyl]-2-oxo-1,3-oxazolidin-5-yl}methyl)ethanethioamide] the value was 1 µg/mL (≈ 2.49 µM); for `CC(=O)NC[C@H]1CN(c2ccc(C3CCC(=O)N(C)C3)cc2)C(=O)O1` (stereo partly drawn) [Example 15, ({(5S)-3-[4-(1-methyl-6-oxopiperidin-3-yl)phenyl]-2-oxo-1,3-oxazolidin-5-yl}methyl)acetamide], 8 µg/mL (≈ 23.2 µM); for `CCC(=O)NC[C@H]1CN(c2ccc(C3CCC(=O)NC3)c(F)c2)C(=O)O1` (stereo partly drawn) [Example 2, N-({(5S)-3-[3-fluoro-4-(6-oxopiperidin-3-yl)phenyl]-2-oxo-1,3-oxazolidin-5-yl}methyl)propanamide], 4 µg/mL (≈ 11 µM). For the compound `O=C1CCC(c2ccc(N3C[C@H](CNC(=O)C(F)F)OC3=O)cc2F)CN1` (stereo partly drawn) [Example 5, 2,2-difluoro-N-({(5S)-3-[3-fluoro-4-(6-oxopiperidin-3-yl)phenyl]-2-oxo-1,3-oxazolidin-5-yl}methyl)acetamide], the MIC amounted to 4 µg/mL (≈ 10.4 µM). The figure for `CCC(=O)NC[C@H]1CN(c2ccc(C3CCC(=O)NC3)cc2)C(=O)O1` (stereo partly drawn) [Example 11, N-({(5S)-2-oxo-3-[4-(6-oxopiperidin-3-yl)phenyl]-1,3-oxazolidin-5-yl}methyl)propanamide] is 8 µg/mL (≈ 23.2 µM). The figure for `CC(=O)NC[C@H]1CN(c2cc(F)c(C3CCNC(=O)C3)c(F)c2)C(=O)O1` (stereo partly drawn) [Example 19, N-({(5S)-3-[3,5-difluoro-4-(2-oxopiperidin-4-yl)phenyl]-2-oxo-1,3-oxazolidin-5-yl}methyl)acetamide] is 4 µg/mL (≈ 10.9 µM); for `CC(=O)NC[C@H]1CN(c2ccc(C3CCC(=O)NC3)cc2)C(=O)O1` (stereo partly drawn) [Example 10, N-({(5S)-2-oxo-3-[4-(6-oxopiperidin-3-yl)phenyl]-1,3-oxazolidin-5-yl}methyl)acetamide] it is 8 µg/mL (≈ 24.1 µM); for `CC(=O)NC[C@H]1CN(c2ccc(C3CCNC(=O)C3)c(F)c2)C(=O)O1` (stereo partly drawn) [Example 16, N-({(5S)-3-[3-fluoro-4-(2-oxopiperidin-4-yl)phenyl]-2-oxo-1,3-oxazolidin-5-yl}methyl)acetamide] it is 2 µg/mL (≈ 5.72 µM).

Compound `O=C1CCC(c2c(F)cc(N3C[C@H](CNC(=O)C(Cl)Cl)OC3=O)cc2F)CN1` (stereo partly drawn) [Example 7, 2,2-dichloro-N-({(5S)-3-[3,5-difluoro-4-(6-oxopiperidin-3-yl)phenyl]-2-oxo-1,3-oxazolidin-5-yl}methyl)acetamide] came in with an MIC of 2 µg/mL (≈ 4.58 µM). As to `O=C1CC(c2c(F)cc(N3C[C@H](CNC(=S)C(F)F)OC3=O)cc2F)CCN1` (stereo partly drawn) [Example 21, N-({(5S)-3-[3,5-difluoro-4-(2-oxopiperidin-4-yl)phenyl]-2-oxo-1,3-oxazolidin-5-yl}methyl)-2,2-difluoroethanethioamide], inhibition of growth (MIC) required 2 µg/mL (≈ 4.77 µM). As for `CC(=O)NC[C@H]1CN(c2ccc(C3CCN(C)C(=O)C3)cc2)C(=O)O1` (stereo partly drawn) [Example 25, N-({(5S)-3-[4-(1-methyl-2-oxopiperidin-4-yl)phenyl]-2-oxo-1,3-oxazolidin-5-yl}methyl)acetamide], the MIC turned out to be 4 µg/mL (≈ 11.6 µM). In turn, `O=C1CCC(c2c(F)cc(N3C[C@H](Cn4ccnn4)OC3=O)cc2F)CN1` (stereo partly drawn) [Example 26, 5-{2,6-difluoro-4-[(5R)-2-oxo-5-(1H-1,2,3-triazol-1-ylmethyl)-1,3-oxazolidin-3-yl]phenyl}piperidin-2-one] returned an MIC of 2 µg/mL (≈ 5.3 µM).

By MIC is commonly meant the least concentration at which growth counts as inhibited.
